Data from patent US20260102390A1, “4-(2-(4-((2,4-DIOXOTHIAZOLIDIN-5-YL)METHYL)PHENOXY) DERIVATIVES AS PPARgamma AGONISTS AND AUTOTAXIN INHIBITORS FOR USE IN THE TREATMENT OF FIBROSIS” (Uni-Pharma Kleon Tsetis Pharmaceutical Laboratories S.A., priority 2022, published 2026).
“Also recorded” adds a separate entry of the source.

Assays:
[1] = system: BLM-induced pulmonary fibrosis; assay: BLM-induced pulmonary fibrosis in mice, inhalation in therapeutic mode; type: in vivo, C57B16/J mice; conditions: inhalation 15 mg/Kg twice daily for 7 days, from 7d post BLM
Description: To explore the therapeutic potential of ATX inhibition in pulmonary fibrosis, BLM was administered to 8-10-week-old C57B16/J mice. Subsequently, the pharmaceutical compound A-1 was delivered for 7 days twice daily via inhalation (1 ml of 6.5 mg/ml for 10 mins/6 mice, corresponding to 15 mg/Kg per mouse) to conscious, gently re-strained mice, in a therapeutic mode (7d post BLM).

[2] = molecular target: T1, Mouse ATX (Mus musculus, UniProt Q9R1E6); assay: Mode of inhibition of ATX, modified Amplex assay (Lineweaver-Burk); type: biochemical; conditions: inhibitor 1-7.5 μM, LPC 25, 50, 100 μM
T1 construct: purchased Sino Biological
Description: To determine the mode of inhibition of ATX by each inhibitor, a modified Amplex assay was employed. In brief, various concentrations of inhibitors (1, 2.5, 5 and 7.5 μM) were tested against various substrate concentrations (LPC 25, 50, 100 μM). Mouse ATX from Sino Biological was used in all mode of inhibition assays. Thereafter, the velocity (V) of the reaction was calculated and the reciprocal of velocity (1/V) was plotted against the reciprocal of substrate concentration (1/S) in Lineweaver-Burk graphs using GraphPad Software (GraphPad Software, San Diego, CA, USA).

[3] = In vitro absorption assay, membrane permeability; type: in vitro ADME; conditions: dog, MDCK, MDCKII
Description: The in vitro absorption assay was performed in the kidney MDCKII cell line and involves the permeability from A to B, when A and B are separated by an MDCKII cell membrane. Ideally, a compound should have a high A to B permeability, but a lower B to A permeability in order to be well-absorbed. […] The A-B permeability is much higher than the B-A permeability, thus both compounds are absorbed well in vitro.

[4] = system: choline oxidase; assay: 2nd reaction of the Amplex Red assay (counter-test); type: biochemical; conditions: 2nd reaction of Amplex Red assay
[5] = molecular target: ATX (UniProt Q9R1E6); assay: ATX inhibitory activity, Amplex Red method; type: biochemical; conditions: LPC 16:0 50 μM, two independent experiments, read-out: IC50 against ATX
Description: The inhibition of ATX enzyme activity of the pharmaceutical compound A-1 was measured in vitro by applying the Amplex Red method. Briefly, 2 μL of concentration from 0.001 to 5 μmol/L of derivative […] in DMSO was incubated with 50 μL ATX 8 nM (up to a final concentration of 2 nM and 1 nM for human ATX) and 48 μL of a buffer solution (50 mM Tris-Cl of pH 8.0 and 5 mM CaCl2) for 15 minutes at 37° C. Subsequently, 50 μL of a buffer solution containing 200 μM LPC 16:0 (final concentration 50 μM) was added to the reaction mixture followed by incubation for another 30 minutes at 37° C. Finally, 50 μL of working solution containing 200 μM Amplex Red reagent and choline oxidase (0.2 U/mL) […] HRP (2 U/mL), in 50 mM Tris-HCl at pH 8.0 and 5 mM CaCl2, was added to begin the reaction. The reaction was monitored at 37° C., in a fluorescence plate reader (Tecan Infinite 200) using excitation at 530 nm and reading at 590 nm, every five minutes for 30 minutes at 37° C. The IC50 value was calculated from two independent experiments, using the sigmoid dose-response curve (PrismH software) from the equation f=y0+a/(1+exp(−(x−x0)/b) given from SigmaPlot 11.0.

[6] = molecular target: T2, HRP peroxidase (Armoracia rusticana, UniProt P00433); assay: 3rd reaction of the Amplex Red assay (counter-test); type: biochemical; conditions: 3rd reaction of Amplex Red assay
T2 sequence (P00433 31-338 limits assumed): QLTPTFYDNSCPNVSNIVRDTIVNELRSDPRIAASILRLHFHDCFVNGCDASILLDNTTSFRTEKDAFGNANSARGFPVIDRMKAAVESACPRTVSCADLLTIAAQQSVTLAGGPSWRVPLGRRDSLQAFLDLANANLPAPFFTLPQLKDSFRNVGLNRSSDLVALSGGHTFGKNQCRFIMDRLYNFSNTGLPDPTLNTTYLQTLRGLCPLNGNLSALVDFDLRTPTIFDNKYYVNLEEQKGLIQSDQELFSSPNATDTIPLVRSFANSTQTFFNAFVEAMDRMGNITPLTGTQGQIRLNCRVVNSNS

[7] = molecular target: T3, hERG (Homo sapiens, UniProt Q12809); assay: Cardiac toxicity assay, hERG inhibition in CHO cells; type: cell-based; conditions: for cardiotoxicity (conclusion): from hERG assay
T3 construct: expressed in transfected cells; host or cells: CHO cells
T3 sequence (Q12809 whole entry): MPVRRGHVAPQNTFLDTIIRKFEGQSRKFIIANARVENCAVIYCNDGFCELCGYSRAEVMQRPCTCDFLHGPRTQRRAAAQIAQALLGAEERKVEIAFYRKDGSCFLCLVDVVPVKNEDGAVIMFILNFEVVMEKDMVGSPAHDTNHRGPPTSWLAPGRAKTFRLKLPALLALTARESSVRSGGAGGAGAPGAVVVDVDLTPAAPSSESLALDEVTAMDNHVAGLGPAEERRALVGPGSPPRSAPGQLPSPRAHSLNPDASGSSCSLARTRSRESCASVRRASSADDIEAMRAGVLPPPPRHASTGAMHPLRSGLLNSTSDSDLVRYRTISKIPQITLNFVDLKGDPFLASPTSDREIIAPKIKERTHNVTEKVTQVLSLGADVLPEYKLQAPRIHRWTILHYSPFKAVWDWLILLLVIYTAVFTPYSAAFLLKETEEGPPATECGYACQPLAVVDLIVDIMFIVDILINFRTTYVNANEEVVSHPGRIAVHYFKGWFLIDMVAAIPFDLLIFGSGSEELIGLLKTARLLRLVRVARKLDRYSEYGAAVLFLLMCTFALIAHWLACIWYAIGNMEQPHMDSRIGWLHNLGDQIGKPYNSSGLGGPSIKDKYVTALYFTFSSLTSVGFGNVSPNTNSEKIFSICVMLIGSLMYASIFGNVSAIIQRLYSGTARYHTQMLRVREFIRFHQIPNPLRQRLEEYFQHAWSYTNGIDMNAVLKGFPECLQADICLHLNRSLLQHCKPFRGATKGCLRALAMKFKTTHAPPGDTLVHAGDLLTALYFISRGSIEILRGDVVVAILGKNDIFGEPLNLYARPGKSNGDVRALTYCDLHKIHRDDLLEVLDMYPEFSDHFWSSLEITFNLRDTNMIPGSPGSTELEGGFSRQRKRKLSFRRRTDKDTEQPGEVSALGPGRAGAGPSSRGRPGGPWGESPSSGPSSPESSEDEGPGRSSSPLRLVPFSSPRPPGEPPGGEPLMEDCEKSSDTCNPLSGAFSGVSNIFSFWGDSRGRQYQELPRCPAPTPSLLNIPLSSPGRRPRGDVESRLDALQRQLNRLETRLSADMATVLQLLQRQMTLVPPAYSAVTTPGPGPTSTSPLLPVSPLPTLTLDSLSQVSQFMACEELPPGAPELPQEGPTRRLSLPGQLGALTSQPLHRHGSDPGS
Description: The assay of cardiac toxicity is performed on CHO cells that express the human ether-a-go-go related gene (hERG) that encodes the inward rectifying voltage gated potassium channel in the heart, which is involved in cardiac repolarisation. Inhibition of the hERG may cause potentially fatal ventricular tachyarrhythmia.

[8] = In vitro metabolism assay in liver microsomes; type: in vitro ADME
Description: The in vitro metabolism assay was performed in liver microsomes. […] This half-live is higher than the ones of known drugs such as imipramine and others, therefore, it seems that A-1 is not quickly cleared from the circulation and, thus, remain available in the circulation for a sufficient period of time.

[9] = system: BLM-induced pulmonary fibrosis; assay: Bleomycin (BLM)-induced pulmonary fibrosis in mice, dosing from one day before BLM; type: in vivo, C57Bl6/J mice
Description: 10-week-old male wild-type C57Bl6/J animals were administered a saline solution of bleomycin (BLM) directly to the lungs via the orotracheal route. The dose of bleomycin was 0.8 U/kg. […] All animals were monitored daily until the 14th day after the BLM injection when they were killed. […] Serum, broncheoalveolar fluid and lung tissue samples were taken at the end point of the experiment and were used to assess the severity of fibrosis for each animal.
Blood serum was collected for each animal and levels of ALT and AST transaminases, which are markers of liver damage, were assessed by using an automated biochemical analyzer.
Next, in the collected broncheoalveolar fluid, the number of cells as well as the total protein concentration were assessed as indicators of inflammation and endothelial penetration, respectively.
Additionally, in sections of lung tissue isolated from the animals, fibrosis was assessed after staining with hematoxylin and eosin.
The mRNA levels of fibrosis-related genes col1α1 (collagen 1α1) in whole lung RNA samples were also estimated.

[10] = 30 mg/kg, 2 doses daily, vs B+V group

O=C1NC(=O)C(Cc2ccc(OCCN3CCN(C(=O)OCc4cc(Cl)cc(Cl)c4)CC3)cc2)S1 (centres unmarked) [A-1, 3,5-dichlorobenzyl4-(2-(4-((2,4-dioxothiazolidin-5-yl)methyl)phenoxy)ethyl)piperazine-1-carboxylate]
inflammatory cells in BALF [1]: significantly reduced
lung architecture, H&E staining [1]: prevented BLM-induced architectural distortion
lung respiratory functions (FlexiVent) [1]: relative protection
vascular leak and pulmonary edema (total protein concentration in BALF) [1]: noteworthy decrease
mode of inhibition against ATX [2]: non-competitive inhibition
Papp A→B ([3]; A to B): 3.7 ×10⁻⁶ cm/s
Papp B→A ([3]; B to A): 0.8 ×10⁻⁶ cm/s
inhibition of choline oxidase [4]: no inhibition; also recorded: Neither compound showed any detectable inhibition
IC50 [5]: 190 nM
inhibition of HRP peroxidase [6]: no inhibition; also recorded: Neither compound showed any detectable inhibition
IC50 [7]: 12000 nM
cardiotoxicity (conclusion) [7]: not cardiotoxic; also recorded: does not exhibit cardiotoxicity
microsomal CLint ([8]; liver microsomes, read-out: Clint (intrinsic clearance)): 329 µL/min/mg
half-life ([8]; microsomes): 21 min
side effects during the model ([9]; 30 mg/kg, 2 doses daily, 14 days post BLM, vs untreated group): did not suffer any unwanted side effects
fibrotic areas in lung sections, hematoxylin and eosin [9, 10]: less fibrotic areas
number of cells in bronchoalveolar fluid [9, 10]: reduced number of cells
total protein concentration in bronchoalveolar fluid [9, 10]: lower levels
col1α1 mRNA levels in whole lung ([9]; 30 mg/kg, 2 doses daily, vs B+V, restored to S+V level): reduces the mRNA levels (expression) of col1α1 statistically significantly
serum ALT level ([9]; 30 mg/kg, 2 doses daily, normal range 28-132 U/L): normal
serum AST level ([9]; 30 mg/kg, 2 doses daily, normal range 59-247 U/L): normal
liver toxicity / hepatotoxicity (conclusion) ([9]; from ALT and AST levels): does not cause any adverse toxicity to the liver; also recorded: does not exhibit hepatotoxicity

O=C1NC(=O)C(Cc2ccc(OCCC3CCN(C(=O)OCc4cc(Cl)cc(Cl)c4)CC3)cc2)S1 (centres unmarked) [A-3, 3,5-dichlorobenzyl 4-(2-(4-((2,4-dioxothiazolidin-5-yl)methyl)phenoxy)ethyl)piperidine-1-carboxylate]
mode of inhibition against ATX [2]: non-competitive inhibition
inhibition of choline oxidase [4]: no inhibition; also recorded: Neither compound showed any detectable inhibition
IC50 [5]: 30 nM
inhibition of HRP peroxidase [6]: no inhibition; also recorded: Neither compound showed any detectable inhibition
cardiotoxicity (conclusion) [7]: not cardiotoxic; also recorded: does not exhibit cardiotoxicity
inhibition at 25 µM ([7]; human, at 25 μM): 11%

Cc1c(C)c2c(c(C)c1O)CCC(C)(COc1ccc(CC3SC(=O)NC3=O)cc1)O2 (centres unmarked) [TGL, troglitazone, reference compound]
IC50 [5]: 610 nM
